Measurements: patent US12421276B2 (priority 2016, dated 2025)
Where “and” joins values, the source holds several entries; their conditions need not be identical. Equal entries are not always repeated. Where two headings read alike, the source gives them in different places.

Columns and labels:
[1] = Plasma stability study, human plasma; assay type: in vitro ADME; conditions: Human plasma, 1 μM, 37° C.
How it was run: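 Compounds (1 μM, from 0.3 mM DMSO stock) incubated at 37° C in K2 EDTA plasma, quenched at time points with acetonitrile/methanol/formic acid plus internal standard, and analysed by LC/MS/MS. Disappearance measured relative to 0-min control; t½ derived from elimination rate constant of semi-log % remaining versus time regression.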

[2] = assay type: in vivo, rat
How it was run: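 Male SD rats (n=4/group) dosed PO at 13.2 or 14.2 mg/kg (10 mL/kg) and housed in metabolic cages with daily urine collection. EDTA blood sampled predose to 24 h post-dose, centrifuged at 4 °C to plasma, analysed by LC-MS.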

[3] = Metabolic stability in simulated gastric fluid (SGF), pH 1.2, with or without pepsin; assay type: in vitro ADME; conditions: +Pepsin (0.32%), 5 μM, 37° C.
How it was run: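 Compound at 5 μM incubated at 37 °C in SGF (34.2 mM NaCl, pH 1.2) without or with 0.32% pepsin; acetonitrile/formic acid quench at time points, LC/MS/MS. Disappearance relative to 0-min; t½ from elimination rate constant of semi-log % remaining vs time.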

[4] = Metabolic stability in simulated intestinal fluid (SIF), pH 6.8, with or without pancreatin; assay type: in vitro ADME; conditions: +Pancreatin (1%), 5 μM, 37° C.
How it was run: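 Compounds at 5 μM incubated at 37 °C in freshly made SIF pH 6.8 (NaOH/NaH2PO4/NaCl), with or without 1% pancreatin. Remaining parent measured by LC/MS/MS against 0-min control; t½ derived from elimination rate constant (−slope) of semi-log % remaining vs time.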

[5] = Rat, PO, 10 mg/kg equiv., n = 4, analyte: Parent (BASE STRUCTURE)
[6] = Rat, PO, 10 mg/kg equiv., n = 4, analyte: Prodrug
[7] = rat, dosed as prodrug, 10 mg/kg equivalent of Base Structure, analyte Parent (Base Structure), Average
[8] = rat, dosed as prodrug, 10 mg/kg equivalent of Base Structure, analyte Parent (Base Structure), Combined (average ± std. dev.)
[9] = rat, dosed as prodrug, 10 mg/kg equivalent of Base Structure, analyte Parent (Base Structure), individual animals, 10 mg/kg
[10] = rat, dosed as prodrug, 10 mg/kg equivalent of Base Structure, analyte Prodrug, Average
[11] = rat, dosed as prodrug, 10 mg/kg equivalent of Base Structure, analyte Prodrug, Combined (average ± std. dev.)
[12] = rat, dosed as prodrug, 10 mg/kg equivalent of Base Structure, analyte Prodrug, individual animals
[13] = rat, dosed as prodrug, 10 mg/kg equivalent of Base Structure, analyte Prodrug, individual animals, 10 mg/kg

Structure (SMILES): CCCCCC(=O)NC(Cc1ccc(OC(=O)NCCN(C)C)cc1)C(=O)NC(C(=O)NCCCCCC(N)=O)C(C)CC (stereo not shown) [Compound A21]
- Plasma Stability Half-Life [1]: 1.22 h
- Plasma Stability (% Parent Remaining) 0 min ([1]; 0 min): 100%
- Plasma Stability (% Parent Remaining) 60 min ([1]; 60 min): 59%
- Plasma Stability (% Parent Remaining) 120 min ([1]; 120 min): 33%
- Plasma Stability (% Parent Remaining) 240 min ([1]; 240 min): 11%
- AUC0-24 [2, 5]: 7.4 ± 0.9 ng·h/mL
- AUC0-inf [2, 5]: 47.8 ± 1 ng·h/mL
- Cmax [2, 5]: 0.6 ± 0.1 ng/mL
- Tmax [2, 5]: 0.9 ± 0.8 h
- half-life [2, 5]: 81.7 ± 5.7 h
- AUC0-24 [2, 6]: 2.8 ± 1.9 ng·h/mL
- AUC0-inf [2, 6]: 6.46 ng·h/mL
- Cmax [2, 6]: 1.6 ± 0.5 ng/mL
- Tmax [2, 6]: 0.8 ± 0.4 h
- half-life [2, 6]: 1.32 h
- AUC 0-inf_obs [2, 7]: 47.78 ng·h/mL
- AUC 0-t [2, 7]: 7.45 ng·h/mL
- AUMC 0-inf_obs [2, 7]: 5777.4305 ng/ml * h^2
- Cl/F_obs [2, 7]: 0.2094 (mg/kg)/(ng/ml)/h
- Cmax [2, 7]: 0.62 ng/mL
- Lambda_z [2, 7]: 0.008507 h⁻¹
- MRT 0-inf_obs [2, 7]: 120.8 h
- Tlag [2, 7]: 0 h
- Tmax [2, 7]: 0.875 h
- Vz/F_obs [2, 7]: 24.65 (mg/kg)/(ng/ml)
- t1/2 [2, 7]: 81.6756 h
- AUC 0-inf_obs [2, 8]: 47.8 ± 1 ng·h/mL
- AUC 0-t [2, 8]: 7.4 ± 0.9 ng·h/mL
- AUMC 0-inf_obs [2, 8]: 5777.4 ± 551.6 ng/ml * h^2
- Cl/F_obs [2, 8]: 0.2 ± 0 (mg/kg)/(ng/ml)/h
- Cmax [2, 8]: 0.6 ± 0.1 ng/mL
- Lambda_z [2, 8]: 0 ± 0 h⁻¹
- MRT 0-inf_obs [2, 8]: 120.8 ± 9.1 h
- Tlag [2, 8]: 0 ± 0 h
- Tmax [2, 8]: 0.9 ± 0.8 h
- Vz/F_obs [2, 8]: 24.7 ± 1.2 (mg/kg)/(ng/ml)
- t1/2 [2, 8]: 81.7 ± 5.7 h
- Tlag ([2]; rat, dosed as prodrug, 10 mg/kg equivalent of Base Structure, analyte Parent (Base Structure), individual animals): 0 h
- AUC 0-inf_obs [2, 9]: 48.45 ng·h/mL and 47.1 ng·h/mL
- AUC 0-t [2, 9]: 7.285 ng·h/mL and 8.222 ng·h/mL and 6.27 ng·h/mL and 8.022 ng·h/mL
- AUMC 0-inf_obs [2, 9]: 6167.4557 ng/ml * h^2 and 5387.4053 ng/ml * h^2
- Cl/F_obs [2, 9]: 0.2064 (mg/kg)/(ng/ml)/h and 0.2123 (mg/kg)/(ng/ml)/h
- Cmax [2, 9]: 0.744 ng/mL and 0.604 ng/mL and 0.555 ng/mL and 0.577 ng/mL
- Lambda_z [2, 9]: 0.00809 h⁻¹ and 0.008925 h⁻¹
- MRT 0-inf_obs [2, 9]: 127.3 h and 114.4 h
- Tmax [2, 9]: 0.25 h (2×) and 1 h and 2 h
- Vz/F_obs [2, 9]: 25.51 (mg/kg)/(ng/ml) and 23.79 (mg/kg)/(ng/ml)
- t1/2 [2, 9]: 85.68 h and 77.67 h
- AUC 0-inf_obs [2, 10]: 6.459 ng·h/mL
- AUC 0-t [2, 10]: 2.846 ng·h/mL
- AUMC 0-inf_obs [2, 10]: 13.69 ng/ml * h^2
- Cl/F_obs [2, 10]: 1.548 (mg/kg)/(ng/ml)/h
- Cmax [2, 10]: 1.615 ng/mL
- Lambda_z [2, 10]: 0.5257 h⁻¹
- MRT 0-inf_obs [2, 10]: 2.119 h
- Tlag [2, 10]: 0 h
- Tmax [2, 10]: 0.8125 h
- Vz/F_obs [2, 10]: 2.945 (mg/kg)/(ng/ml)
- t1/2 [2, 10]: 1.319 h
- AUC 0-inf_obs [2, 11]: 6.459 ng·h/mL
- AUC 0-t [2, 11]: 2.8 ± 1.9 ng·h/mL
- AUMC 0-inf_obs [2, 11]: 13.69 ng/ml * h^2
- Cl/F_obs [2, 11]: 1.548 (mg/kg)/(ng/ml)/h
- Cmax [2, 11]: 1.6 ± 0.5 ng/mL
- Lambda_z [2, 11]: 0.5257 h⁻¹
- MRT 0-inf_obs [2, 11]: 2.119 h
- Tlag [2, 11]: 0 ± 0 h
- Tmax [2, 11]: 0.8 ± 0.4 h
- Vz/F_obs [2, 11]: 2.945 (mg/kg)/(ng/ml)
- t1/2 [2, 11]: 1.319 h
- AUC 0-inf_obs [2, 12]: 6.459 ng·h/mL
- AUMC 0-inf_obs [2, 12]: 13.69 ng/ml * h^2
- Cl/F_obs [2, 12]: 1.548 (mg/kg)/(ng/ml)/h
- Lambda_z [2, 12]: 0.5257 h⁻¹
- MRT 0-inf_obs [2, 12]: 2.119 h
- Tlag [2, 12]: 0 h
- Vz/F_obs [2, 12]: 2.945 (mg/kg)/(ng/ml)
- t1/2 [2, 12]: 1.319 h
- AUC 0-t [2, 13]: 5.619 ng·h/mL and 2.381 ng·h/mL and 1.498 ng·h/mL and 1.885 ng·h/mL
- Cmax [2, 13]: 2.18 ng/mL and 1.89 ng/mL and 1.01 ng/mL and 1.38 ng/mL
- Tmax [2, 13]: 0.25 h and 1 h (3×)
- SGF Stability (pH 1.2) Half-Life (min) [3]: 265.1 min
- SGF Stability (pH 1.2) 0 min ([3]; 0 min): 100%
- SGF Stability (pH 1.2) 60 min ([3]; 60 min): 87%
- SGF Stability (pH 1.2) 120 min ([3]; 120 min): 74%
- SGF Stability (pH 1.2) 240 min ([3]; 240 min): 54%
- SIF Stability (pH 6.8) Half-Life (min) [4]: 3006.4 min
- SIF Stability (pH 6.8) 0 min ([4]; 0 min): 100%
- SIF Stability (pH 6.8) 60 min ([4]; 60 min): 95%
- SIF Stability (pH 6.8) 120 min ([4]; 120 min): 97%
- SIF Stability (pH 6.8) 240 min ([4]; 240 min): 93%
